Reference: US20180353483A1, “PHARMACEUTICAL COMPOSITIONS AND METHODS FOR INDOLEAMINE, 2, 3-DIOXYGENASE INHIBITION AND INDICATIONS THEREFOR” (Incyte Corporation, priority 2015, published 2018)
“And” between values parts separate entries of the source, which are not always exact repeats. Equal values may be shown once.

Assay: Pharmacokinetics of Compound 1 in combination with MK-3475 in subjects with various cancers
Format: in vivo, human
Experimental: The subjects were not limited to a specific cancers and study include subjects with various cancers. […] One treatment cycle consisted of 21 days. […] Additional subjects were enrolled in a cohort to achieve the minimum of 3 evaluable subjects if dropouts or dose interruptions or reductions occur that result in a subject being non-evaluable for DLTs. […] An additional safety cohort was opened at 100 mg BID in parallel to 300 mg BID being tested. This may also be limited to subjects with melanoma, NSCLC, or specific cancer types from among those included in Phase 1. The RP2D was selected from the evaluated safety expansions.
If a dose was missed by more than 4 hours, that dose was skipped and was resumed at the scheduled time.
Pharmacokinetic samples were obtained at the visits of Cycle 1 Day 1, Cycle 1 Day 8 and Cycle 2 Day 1. […] The exact date and time of the PK blood draws were recorded in the eCRF along with the date and time of the last dose of study drug and details of the last meal preceding the blood draw.
The planned PK time points were used for preliminary PK analyses.

[1] = Cohort 1, 25 mg, first dose, geometric mean
[2] = Cohort 1, 25 mg, first dose, mean ± SD
[3] = Cohort 6, 300 mg BID, steady state C1D8, mean ± SD
[4] = Diagnosis DLBCL, steady state C1D8, individual values of 2 subjects
[5] = Diagnosis RCC, first dose, individual values of 2 subjects

`NS(=O)(=O)NCCNc1nonc1C(=NO)Nc1ccc(F)c(Br)c1` [Compound 1, 4-({2-[(aminosulfonyl)amino]ethyl}amino)-N-(3-bromo-4-fluorophenyl)-N′-hydroxy-1,2,5-oxadiazole-3-carboximidamide] showed a tmax (All diagnoses, first dose, median) of 2.00 h, a CL/F (All diagnoses, steady state C1D8, mean ± SD) of 28.7 ± 10.3 L/h and a tmax (All diagnoses, steady state C1D8, median) of 2.00 h. For the same compound, the CL/F (Cohort 1, 25 mg BID, steady state C1D8, mean ± SD) was 46.2 ± 8.91 L/h, the tmax (Cohort 1, 25 mg BID, steady state C1D8, median) was 1.00 h and the AUC(0-t) [1] was “(0.650) μM * h”. It also gave a Cmax [1] of 199 nM, an AUC(0-t) [2] of 0.711 ± 0.349 µM·h and a Cmax [2] of 231 ± 151 nM. The tmax (Cohort 1, 25 mg, first dose, median) was 2.00 h, the CL/F (Cohort 2, 50 mg BID, steady state C1D8, mean ± SD) was 52.6 ± 22.4 L/h and the tmax (Cohort 2, 50 mg BID, steady state C1D8, median) was 2.00 h. The Cmax (Cohort 2, 50 mg, first dose, geometric mean) was 543 nM, the tmax (Cohort 2, 50 mg, first dose, median) was 2.00 h and the Cmax (Cohort 3, 100 mg BID, steady state C1D8, geometric mean) was 814 nM. The CL/F (Cohort 3, 100 mg BID, steady state C1D8, mean ± SD) was 67.4 ± 34.9 L/h, the tmax (Cohort 3, 100 mg BID, steady state C1D8, median) was 2.00 h and the CL/F (Cohort 4 (MEL), 50 mg BID, steady state C1D8, mean ± SD) was 78.3 ± 28.9 L/h. For the same compound, the tmax (Cohort 4 (MEL), 50 mg, first dose, median) was 1.00 h, the Cmax (Cohort 5, 100 mg BID, steady state C1D8, geometric mean) was 803 nM and the CL/F (Cohort 5, 100 mg BID, steady state C1D8, mean ± SD) was 69.6 ± 28.4 L/h. The tmax (Cohort 5, 100 mg BID, steady state C1D8, median) was 2.00 h, the Cmax (Cohort 6, 300 mg BID, steady state C1D8, geometric mean) was 2500 nM and the CL/F [3] was 64.8 ± 23.2 L/h. It also gave a Cmax [3] of 2710 ± 1220 nM, a tmax (Cohort 6, 300 mg BID, steady state C1D8, median) of 2.00 h and a tmax (Cohort 6, 300 mg, first dose, median) of 2.00 h. It also gave a Cmax (Cohort 7, 300 mg BID, steady state C1D8, geometric mean) of 2520 nM, a CL/F (Cohort 7, 300 mg BID, steady state C1D8, mean ± SD) of 65 ± 23.4 L/h and a tmax (Cohort 7, 300 mg BID, steady state C1D8, median) of 2.00 h. The tmax (Cohort 7, 300 mg, first dose, median) was 2.00 h, the AUC(0-t) (Diagnosis DLBCL, first dose, mean ± SD) was 2.29 ± 1.16 µM·h and the AUC0-12 h [4] was 3.99 µM·h. For the same compound, the CL/F [4] was 21.4 L/h and 28.6 L/h, the Cmax [4] was 904 nM and the tmax [4] was 4.0, 4.0 h. It also gave a tmax (Diagnosis GU, first dose, median) of 2.00 h, a CL/F (Diagnosis GU, steady state C1D8, mean ± SD) of 28.1 ± 10.0 L/h and a tmax (Diagnosis GU, steady state C1D8, median) of 2.00 h. For the same compound, the Cmax (Diagnosis MEL, first dose, geometric mean) was 809 nM, the tmax (Diagnosis MEL, first dose, median) was 2.00 h and the CL/F (Diagnosis MEL, steady state C1D8, mean ± SD) was 33.0 ± 10.0 L/h. For the same compound, the tmax (Diagnosis MEL, steady state C1D8, median) was 2.00 h, the Cmax (Diagnosis NSCLC PD-L1 High, steady state C1D8, geometric mean) was 815 nM and the CL/F (Diagnosis NSCLC PD-L1 High, steady state C1D8, mean ± SD) was 29.2 ± 10.4 L/h. It also gave a Cmax (Diagnosis NSCLC PD-L1 Low/NE, first dose, mean ± SD) of 914 ± 343 nM, a tmax (Diagnosis NSCLC PD-L1 Low/NE, first dose, median) of 1.00 h and a CL/F (Diagnosis NSCLC PD-L1 Low/NE, steady state C1D8, mean ± SD) of 26.9 ± 4.57 L/h. The tmax (Diagnosis NSCLC PD-L1 Low/NE, steady state C1D8, median) was 2.00 h, the tmax (Diagnosis OC, first dose, median) was 2.00 h and the CL/F (Diagnosis OC, steady state C1D8, mean ± SD) was 27.9 ± 8.82 L/h. The tmax (Diagnosis OC, steady state C1D8, median) was 2.00 h, the AUC(0-t) [5] was 3.58 µM·h and 1.74 µM·h and the Cmax [5] was 1350 nM and 418 nM. It also gave a tmax [5] of 2.0 h, an AUC(0-t) (Diagnosis SCCHN, first dose, mean ± SD) of 2.32 ± 1.10 µM·h and a tmax (Diagnosis SCCHN, first dose, median) of 2.00 h. The CL/F (Diagnosis SCCHN, steady state C1D8, mean ± SD) was 33.3 ± 15.5 L/h, the tmax (Diagnosis SCCHN, steady state C1D8, median) was 2.00 h and the tmax (Diagnosis TNBC, first dose, median) was 2.00 h. The CL/F (Diagnosis TNBC, steady state C1D8, mean ± SD) was 25.7 ± 8.22 L/h.
